Results on 44 molecules are retold here after US6525059B1, “Substituted pyrazoles as p38 kinase inhibitors” (G. D. Searle & Company, priority 1998, dated 2003).

Structures are written as SMILES. Read-outs that look alike come from different tables or passages of the source.

Test [1] deals with T1, human p38 kinase alpha (Homo sapiens, UniProt Q16539).
T1 construct: The coding region of the human p38a cDNA was obtained by PCR-amplification from RNA isolated from the human monocyte cell line THP.1; GST (N); made in house; host or cells: E. coli DH10B
The test can be described thus: p38 kinase in vitro assay, phosphorylation of biotinylated PHAS-I with gamma 32P-ATP. It counts as biochemical. In a few lines: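 Radiometric filter-capture read-out: streptavidin plates trap biotin-PHAS-I labelled by activated (MKK6) human p38α from γ-32P-ATP. Buffer 25 mM HEPES pH 7.5, 10 mM magnesium acetate, 50 μM cold ATP; reactions 1 h or overnight at 30 °C; inhibitors 10-fold dilutions 100 to 0.001 μM, triplicates, 1% DMSO.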

The test system of test [2] is TNF-α. Put plainly: LPS stimulation of TNF production by U937 cells. It counts as cell-based, human. The note with it: for inhibition at 1 µM: U-937, @ 1.0 uM, read-out: U937 Cell % inhib @ conc.; for U937 Cell % inhib @ conc.: @ 1.0 uM. In a few lines:
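PMA-differentiated human U937 cells (20 ng/ml PMA, 24 h, then 24-48 h rest) at 2 million cells/ml, 0.1% DMSO final, stimulated with E. coli LPS (100 ng/ml final) for 4 h at 37° C. TNF-α in medium measured by ELISA; IC50 in μM.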

The mark [3] stands for this setting: p38α in vitro, PHAS-I assay procedure, read-out: p38^1 IC50.
[4] abbreviates: Homo sapiens, U-937, LPS-stimulated U937 cells, read-out: U937 IC50.
Where [5] appears, read: read-out: P38 alpha kinase IC50.
[6] abbreviates: read-out: P38 alpha kinase % inhib @ conc.
Setting [7] is: Homo sapiens, U-937, TNF production, LPS-stimulated human U937 cells, read-out: U937 Cell IC50.

T1 sequence (Q16539 whole entry): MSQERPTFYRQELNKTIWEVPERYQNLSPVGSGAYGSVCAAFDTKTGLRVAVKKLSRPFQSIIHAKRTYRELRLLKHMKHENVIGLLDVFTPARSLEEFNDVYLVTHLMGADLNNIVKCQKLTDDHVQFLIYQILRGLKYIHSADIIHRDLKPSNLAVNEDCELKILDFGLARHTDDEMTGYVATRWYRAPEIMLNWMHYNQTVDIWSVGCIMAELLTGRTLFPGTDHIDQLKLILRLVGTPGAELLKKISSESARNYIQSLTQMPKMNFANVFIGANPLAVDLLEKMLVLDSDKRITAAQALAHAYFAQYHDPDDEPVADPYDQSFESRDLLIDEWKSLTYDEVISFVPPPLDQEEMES

The IC50 is the concentration at which inhibition is half-maximal. For `CN(C)CCCNc1[nH]nc(-c2ccc(F)cc2)c1-c1ccncc1` [Example A-287, N′-[5-(4-fluorophenyl)-4-(4-pyridinyl)-1H-pyrazol-3-yl]-N,N-dimethyl-1,3-propanediamine], the half-maximal inhibitory concentration (IC50) in test [1] (setting [3]) was determined as 41 nM; in test [2] (setting [4]), 270 nM.
Consider `C[C@@H](NS(=O)(=O)c1cccc2cccnc12)c1[nH]nc(-c2ccc(F)cc2)c1-c1ccncc1` [Example B-0443], for which the concentration for half-maximal inhibition (IC50) in test [1] (setting [5]) worked out at 2010 nM. The inhibition at 1 µM in test [2] (Homo sapiens) came out at 71%.
Regarding `COc1ccc(C(=O)NCc2[nH]nc(-c3ccc(F)cc3)c2-c2ccncc2)cc1OC` [Example B-0068], the values for the inhibition at 1 µM in test [1] (setting [6]) and in test [2] (Homo sapiens) were 72% and 22%, respectively.
Take `CC(=O)O[C@@H](C)C(=O)NCc1[nH]nc(-c2ccc(F)cc2)c1-c1ccncc1` [Example B-0083]: the values for the IC50 in test [1] (setting [5]) and in test [2] (setting [7]) were 220 nM and 6510 nM, respectively.
For the molecule `CC(=O)NCc1[nH]nc(-c2ccc(F)cc2)c1-c1ccncc1` [Example B-0044], the IC50 came out at 140 nM in test [1] (setting [5]) and 190 nM in test [2] (setting [7]).
Take `CS(=O)(=O)c1ccccc1S(=O)(=O)NCc1[nH]nc(-c2ccc(F)cc2)c1-c1ccncc1` [Example B-0261]: the IC50 in test [1] (setting [5]) was determined as 490 nM. In test [2] (Homo sapiens), the inhibition at 1 µM was 23%.
As for `C[C@@H](NC(=O)c1cc(F)cc(F)c1)c1[nH]nc(-c2ccc(F)cc2)c1-c1ccncc1` [Example B-0502], in test [1] (setting [5]), the IC50 amounted to 65 nM. The inhibition at 1 µM in test [2] (Homo sapiens) was 48%.
On to `CC(=O)Nc1ccc(S(=O)(=O)N[C@H](C)c2[nH]nc(-c3ccc(F)cc3)c2-c2ccncc2)cc1` [Example B-0431], for which the IC50 in test [1] (setting [5]) is 210 nM. In test [2] (Homo sapiens), the inhibition at 1 µM was determined as 64%.
Taken in the same sequence, the figures for `CC(C)OC(=O)N[C@H](C)c1[nH]nc(-c2ccc(F)cc2)c1-c1ccncc1` [Example B-0429] were 270 nM and 45%.
As for `CC(C)(C)C(=O)NC(Cc1ccccc1)c1[nH]nc(-c2ccc(F)cc2)c1-c1ccncc1` (stereo not shown) [Example B-0791], the 50% inhibitory concentration (IC50) in test [1] (setting [5]) is 300 nM; in test [2] (TNF production, LPS-stimulated human U937 cells, read-out: U937 Cell IC50), greater than 1000 nM.
In the case of `CC(=O)Nc1nc(C)c(S(=O)(=O)NCc2[nH]nc(-c3ccc(F)cc3)c2-c2ccncc2)s1` [Example B-0222], in test [1] (setting [5]), the concentration for half-maximal inhibition (IC50) was determined as 400 nM. Also, the inhibition at 1 µM in test [2] (Homo sapiens) turned out to be 29%.
Consider `CSCCC(=O)NCc1[nH]nc(-c2ccc(F)cc2)c1-c1ccncc1` [Example B-0081], for which the inhibition at 1 µM is 92% in test [1] (setting [6]) and 13% in test [2] (Homo sapiens).
As for `COc1ccccc1C(=O)NCc1[nH]nc(-c2ccc(F)cc2)c1-c1ccncc1` [Example B-0011], the IC50 was found to be 30 nM in test [1] (setting [5]) and 4470 nM in test [2] (setting [7]).
Turning to `Cc1cc(C)c(NC(=O)NCc2[nH]nc(-c3ccc(F)cc3)c2-c2ccncc2)c(C)c1` [Example B-0186], the results for the inhibition at 1 µM in test [1] (setting [6]) and in test [2] (Homo sapiens) were 40% and 25%, respectively.
On to `CCCCCc1ccc(NC(=O)NCc2[nH]nc(-c3ccc(F)cc3)c2-c2ccncc2)cc1` [Example B-0156], for which, in test [1] (@ 10.0 uM), the “P38 alpha kinase % inhib @ conc.” value came to 42.0% @ 10.0 uM. Further, the “U937 Cell % inhib @ conc.” value in test [2] amounted to 13.0% @ 1.0 uM.
As for `COc1ccc(Cl)cc1S(=O)(=O)N[C@H](C)c1[nH]nc(-c2ccc(F)cc2)c1-c1ccncc1` [Example B-0478], in test [1] (setting [5]), the IC50 is 34 nM. Moreover, the inhibition at 1 µM in test [2] (Homo sapiens) was determined as 87%.
For the molecule `O=C(NCc1[nH]nc(-c2ccc(F)cc2)c1-c1ccncc1)c1cc(F)cc(F)c1` [Example B-0277], the IC50 in test [1] (setting [5]) was 680 nM. In addition, the inhibition at 1 µM in test [2] (Homo sapiens) was 34%.
Taken in the same sequence, the figures for `C[C@@H](NC(=O)c1cc(F)c(F)cc1F)c1[nH]nc(-c2ccc(F)cc2)c1-c1ccncc1` [Example B-0521] were 1370 nM and 52%.
Taken in the same sequence, the figures for `Cc1cc(C)c(S(=O)(=O)N[C@H](C)c2[nH]nc(-c3ccc(F)cc3)c2-c2ccncc2)c(C)c1` [Example B-0439] were 2120 nM and 65%.
With `C[C@@H](NS(=O)(=O)c1ccc(CNC(=O)c2ccccc2)s1)c1[nH]nc(-c2ccc(F)cc2)c1-c1ccncc1` [Example B-0480], the half-inhibitory concentration (IC50) in test [1] (setting [5]) worked out at 120 nM. Further, the inhibition at 1 µM in test [2] (Homo sapiens) worked out at 88%.
Consider `CC(C)NC(=O)N[C@H](C)c1[nH]nc(-c2ccc(F)cc2)c1-c1ccncc1` [Example B-0401], for which the IC50 in test [1] (setting [5]) turned out to be 460 nM. Besides, the inhibition at 1 µM in test [2] (Homo sapiens) was determined as 52%.
For `O=C(NCc1[nH]nc(-c2ccc(F)cc2)c1-c1ccncc1)Nc1ccc(OC(F)(F)F)cc1` [Example B-0172], the inhibition at 10 µM in test [1] (@ 10.0 uM, read-out: P38 alpha kinase % inhib @ conc.) is 16%. The inhibition at 1 µM in test [2] (Homo sapiens) turned out to be 11%.
Consider `COC(=O)CNc1n[nH]c(-c2ccc(F)cc2)c1-c1ccncc1` [Example A-292, N-[5-(4-fluorophenyl)-4-(4-pyridinyl)-1H-pyrazol-3-yl]glycine methyl ester], for which the IC50 in test [1] (setting [3]) is 1150 nM; in test [2] (setting [4]), greater than 10000 nM.
Consider `C[C@@H](NC(=O)N[C@H](C)c1[nH]nc(-c2ccc(F)cc2)c1-c1ccncc1)c1ccccc1` [Example B-0414], for which the half-inhibitory concentration (IC50) in test [1] (setting [5]) turned out to be 540 nM. The inhibition at 1 µM in test [2] (Homo sapiens) stood at 25%.
As for `C#CCn1ncc(-c2ccncc2)c1-c1ccc(F)cc1` [Example A-295, 4-[5-(4-fluorophenyl)-1-(2-propynyl)-1H-pyrazol-4-yl]pyridine], the 50% inhibitory concentration (IC50) was 7660 nM in test [1] (setting [3]) and greater than 10000 nM in test [2] (setting [4]).
Turning to `COc1ccc(C)cc1S(=O)(=O)NCc1[nH]nc(-c2ccc(F)cc2)c1-c1ccncc1` [Example B-0246], the figures for the half-maximal inhibitory concentration (IC50) in test [1] (setting [5]) and in test [2] (setting [7]) were less than 100 nM and greater than 1000 nM, respectively.
For the molecule `COC(=O)CCCC(=O)NCc1[nH]nc(-c2ccc(F)cc2)c1-c1ccncc1` [Example B-0078], the inhibition at 1 µM was found to be 80% in test [1] (setting [6]) and 20% in test [2] (Homo sapiens).
`C[C@@H](NC(=O)Cc1cccs1)c1[nH]nc(-c2ccc(F)cc2)c1-c1ccncc1` [Example B-0423]: the IC50 in test [1] (setting [5]) was 180 nM. Also, the inhibition at 1 µM in test [2] (Homo sapiens) was determined as 33%.
Taken in the same sequence, the figures for `Cc1ccc(F)cc1S(=O)(=O)NCc1[nH]nc(-c2ccc(F)cc2)c1-c1ccncc1` [Example B-0232] were 48 nM and 24%.
Consider `CS(=O)(=O)NCc1[nH]nc(-c2ccc(F)cc2)c1-c1ccncc1` [Example B-0107], for which the IC50 came to 270 nM in test [1] (setting [5]) and 5000 nM in test [2] (setting [7]).
Turning to `C[C@@H](NC(=O)c1cc(Cl)cc(Cl)c1)c1[nH]nc(-c2ccc(F)cc2)c1-c1ccncc1` [Example B-0498], the IC50 in test [1] (setting [5]) amounted to 330 nM. In addition, the inhibition at 1 µM in test [2] (Homo sapiens) worked out at 11%.
Regarding `O=C(NCc1[nH]nc(-c2ccc(F)cc2)c1-c1ccncc1)c1ccncc1` [Example B-0199], in test [1] (setting [5]), the half-maximal inhibitory concentration (IC50) is 1340 nM. Also, the inhibition at 1 µM in test [2] (Homo sapiens) turned out to be 3%.
Taken in the same sequence, the figures for `O=C(NCc1[nH]nc(-c2ccc(F)cc2)c1-c1ccncc1)[C@H]1CCCN1C(=O)OCC1c2ccccc2-c2ccccc21` [Example B-0197] were 2000 nM and 14%.
Taken in the same sequence, the figures for `CNC(=O)NCc1[nH]nc(-c2ccc(F)cc2)c1-c1ccncc1` [Example B-0211] were 250 nM and 30%.
For `O=S(=O)(NCc1[nH]nc(-c2ccc(F)cc2)c1-c1ccncc1)c1cc(S(=O)(=O)c2ccccc2)cs1` [Example B-0259], in test [1] (setting [5]), the half-inhibitory concentration (IC50) was found to be 350 nM. Further, the inhibition at 1 µM in test [2] (Homo sapiens) amounted to 58%.
With `C[C@@H](NC(=O)c1c(F)cccc1F)c1[nH]nc(-c2ccc(F)cc2)c1-c1ccncc1` [Example B-0523], in test [1] (setting [5]), the IC50 was determined as 190 nM. The inhibition at 1 µM in test [2] (Homo sapiens) was 83%.
As for `O=C(NCc1[nH]nc(-c2ccc(F)cc2)c1-c1ccncc1)[C@@H]1CCCN1C(=O)OCC1c2ccccc2-c2ccccc21` [Example B-0195], the IC50 in test [1] (setting [5]) turned out to be 1030 nM. Further, in test [2] (Homo sapiens), the inhibition at 1 µM worked out at 55%.
For the molecule `OCCCNc1cc(-c2c[nH]nc2-c2ccc(F)cc2)ccn1` [Example A-282, 3-[[4-[3-(4-fluorophenyl)-1H-pyrazol-4-yl]-2-pyridinyl]amino]-1-propanol], the 50% inhibitory concentration (IC50) stood at 45 nM in test [1] (setting [3]) and 97.3 nM in test [2] (setting [4]).
Turning to `Cc1ccc(C(=O)N[C@H](C)c2[nH]nc(-c3ccc(F)cc3)c2-c2ccncc2)cc1` [Example B-0374], in test [1] (setting [5]), the half-maximal inhibitory concentration (IC50) came out at 1380 nM. The “U937 Cell % inhib @ conc.” value in test [2] was 12.0% @ 1.0 uM.
For `O=C(NCc1[nH]nc(-c2ccc(F)cc2)c1-c1ccncc1)c1cccc(C(F)(F)F)c1F` [Example B-0285], the half-maximal inhibitory concentration (IC50) in test [1] (setting [5]) was 4570 nM. Further, the inhibition at 1 µM in test [2] (Homo sapiens) was 29%.
Turning to `CCCCS(=O)(=O)NCc1[nH]nc(-c2ccc(F)cc2)c1-c1ccncc1` [Example B-0100], the inhibition at 1 µM in test [1] (setting [6]) amounted to 75%. Moreover, the concentration for half-maximal inhibition (IC50) in test [2] (setting [7]) came out at 5000 nM.
Turning to `COc1ccc(S(=O)(=O)N[C@H](C)c2[nH]nc(-c3ccc(F)cc3)c2-c2ccncc2)cc1OC` [Example B-0400], in test [1] (setting [5]), the IC50 amounted to 160 nM. Moreover, in test [2] (Homo sapiens), the inhibition at 1 µM is 25%.
Taken in the same sequence, the figures for `COc1ccc(C)cc1S(=O)(=O)N[C@H](C)c1[nH]nc(-c2ccc(F)cc2)c1-c1ccncc1` [Example B-0470] were 63 nM and 92%.
Taken in the same sequence, the figures for `O=S(=O)(NCc1[nH]nc(-c2ccc(F)cc2)c1-c1ccncc1)c1cc(Cl)cc(Cl)c1` [Example B-0241] were 100 nM and 45%.
